# Activity calls are given as the source filed them. The rule behind the calls is not given here.
# Molecular target: Prothrombin (Homo sapiens, UniProt P00734)
# Assay: Inhibition of human thrombin assessed as reduction in release of free nitroaniline using tosyl-glycyl-prolyl-arginine-4-nitranilide acetate as substrate preincubated for 10 mins followed by substrate addition by spectrophotometer
row,Structure (SMILES),IC50
1,CC(C)(C(=O)N1CCCCC1)c1ccc2c(c1)nc1n2CCNC1Cc1ccc(C(=N)N)cc1 (stereo not drawn),1000 nM
2,CC(C)(C(=O)N1CCCC1)c1ccc2c(c1)nc1n2CCNC1Cc1ccc(C(=N)N)cc1 (stereo not drawn),147 nM
3,CCOC(=O)C(C)(C)c1ccc2c(c1)nc1n2CCNC1Cc1ccc(C(=N)N)cc1 (stereo not drawn),1440 nM

# Other lines, results leading:
row,IC50,Structure (SMILES)
1,1030 nM,N=C(N)c1ccc(CC2NCCn3c2nc2cc(C4(C(=O)N5CCCCC5)CCCC4)ccc23)cc1 (stereo not drawn)
2,437 nM,N=C(N)c1ccc(CC2NCCn3c2nc2cc(C4(C(=O)N5CCCCC5)CC4)ccc23)cc1 (stereo not drawn)
3,456 nM,N=C(N)c1ccc(CC2NCCn3c2nc2cc(C4(C(=O)N5CCCCC5)CCC4)ccc23)cc1 (stereo not drawn)
4,511 nM,N=C(N)c1ccc(CC2NCCn3c2nc2cc(C4(C(=O)N5CCCC5)CC4)ccc23)cc1 (stereo not drawn)
5,446 nM,N=C(N)c1ccc(CC2NCCn3c2nc2cc(C4(C(=O)N5CCCC5)CCC4)ccc23)cc1 (stereo not drawn)
6,82.8 nM,N=C(N)c1ccc(CC2NCCn3c2nc2cc(C4(C(=O)N5CCCC5)CCCC4)ccc23)cc1 (stereo not drawn)
7,1920 nM,CCOC(=O)C1(c2ccc3c(c2)nc2n3CCNC2Cc2ccc(C(=N)N)cc2)CCCC1 (stereo not drawn)

# Tested on: Rattus norvegicus
# Assay: Anti-thrombotic activity in Sprague-Dawley rat venous thrombosis model assessed as reduction in thrombus weight at 5 mg/kg, ig administered once daily for 3 days measured 2 hrs post last dose
# Type: functional, organism-based
row,Structure (SMILES),Activity
1,CCCCCCOC(=O)NC(=N)c1ccc(NCc2nc3cc(C(=O)N(CCC(=O)OCC)c4ccccn4)ccc3n2C)cc1,Active

# Tested on: Rattus norvegicus
# Assay: Anti-thrombotic activity in intragastrically dosed Sprague-Dawley rat venous thrombosis model assessed as reduction in thrombus weight administered once daily for 3 days measured 2 hrs post last dose
# Type: functional, organism-based
row,Structure (SMILES),Activity
1,Cc1nc(C)c(OC(=O)/N=C(\N)c2ccc(CC3NCCn4c3nc3cc(C5(C(=O)N6CCCC6)CCCC5)ccc34)cc2)nc1C (stereo not drawn),Dose-dependent effect
2,CC(C)(C)OC(=O)/N=C(\N)c1ccc(CC2NCCn3c2nc2cc(C4(C(=O)N5CCCC5)CCCC4)ccc23)cc1 (stereo not drawn),Dose-dependent effect

# Reference: ChEMBL document CHEMBL3871289, “Design, synthesis and antithrombotic evaluation of novel non-peptide thrombin inhibitors” (Bioorg Med Chem, 2017)
